Measured values as given in ChEMBL document CHEMBL4196065, “Design and synthesis of new hybrids from 2-cyano-3,12-dioxooleana- 9-dien-28-oic acid and O2-(2,4-dinitrophenyl) diazeniumdiolate for intervention of drug-resistant lung cancer” (Eur J Med Chem, 2018).
The source made the active and inactive calls. No cut-off for these calls is given here.

How the values were obtained:
[1] = tested on: A549/TR; experiment: Antiproliferative activity against human A549/TR cells at 1 uM after 72 hrs by MTT assay; format: functional
[2] = tested on: A549/TR; experiment: Antiproliferative activity against human A549/TR cells after 72 hrs by MTT assay; format: functional, cell-based
[3] = Resistant factor, ratio of IC50 for human A549/TR cells to IC50 for human A549 cells; format: functional
[4] = tested on: A549; experiment: cells; details: Homo sapiens, A549, 72 h
Description: Antiproliferative activity against human A549 cells after 72 hrs by MTT assay

[5] = tested on: A549/TR; experiment: Induction of nitric oxide production in human A549/TR cells at 50 uM after 6 hrs by Griess assay; format: functional, cell-based
[6] = tested on: MRC5; experiment: Induction of nitric oxide production in human MRC5 cells at 50 uM after 6 hrs by Griess assay; format: cell-based; details: mrc5, 6 h
[7] = tested on: A549/TR; experiment: Induction of ROS generation in human A549/TR cells at 2.4 to 9.6 uM after 24 hrs by DCFH-DA dye-based flow cytometric analysis; format: functional, cell-based
[8] = tested on: A549/TR; experiment: Downregulation of Lon expression in human A549/TR cells at 4.8 uM after 24 hrs by Western blot analysis; format: functional, cell-based
[9] = tested on: A549/TR; experiment: Induction of apoptosis in human A549/TR cells assessed as viable cells at 1.2 uM after 24 hrs by Annexin-V-FITC/propidium iodide staining-based flow cytometric analysis (reference value: 95.1%); format: functional; details: read-out: Activity
[10] = tested on: A549/TR; experiment: Induction of apoptosis in human A549/TR cells assessed as early apoptotic cells at 1.2 uM after 24 hrs by Annexin-V-FITC/propidium iodide staining-based flow cytometric analysis (reference value: 3.42%); format: functional
[11] = tested on: A549/TR; experiment: Induction of apoptosis in human A549/TR cells assessed as late apoptotic cells at 1.2 uM after 24 hrs by Annexin-V-FITC/propidium iodide staining-based flow cytometric analysis (reference value: 1.24%); format: functional
[12] = tested on: A549/TR; experiment: Induction of apoptosis in human A549/TR cells assessed as necrotic cells at 1.2 uM after 24 hrs by Annexin-V-FITC/propidium iodide staining-based flow cytometric analysis (reference value: 0.22%); format: functional
[13] = tested on: A549/TR; experiment: Induction of apoptosis in human A549/TR cells assessed as viable cells at 2.4 uM after 24 hrs by Annexin-V-FITC/propidium iodide staining-based flow cytometric analysis (reference value: 95.1%); format: functional; details: read-out: Activity
[14] = tested on: A549/TR; experiment: Induction of apoptosis in human A549/TR cells assessed as early apoptotic cells at 2.4 uM after 24 hrs by Annexin-V-FITC/propidium iodide staining-based flow cytometric analysis (reference value: 3.42%); format: functional
[15] = tested on: A549/TR; experiment: Induction of apoptosis in human A549/TR cells assessed as late apoptotic cells at 2.4 uM after 24 hrs by Annexin-V-FITC/propidium iodide staining-based flow cytometric analysis (reference value: 1.24%); format: functional
[16] = tested on: A549/TR; experiment: Induction of apoptosis in human A549/TR cells assessed as necrotic cells at 2.4 uM after 24 hrs by Annexin-V-FITC/propidium iodide staining-based flow cytometric analysis (reference value: 0.22%); format: functional
[17] = tested on: A549/TR; experiment: Induction of apoptosis in human A549/TR cells assessed as viable cells at 4.8 uM after 24 hrs by Annexin-V-FITC/propidium iodide staining-based flow cytometric analysis (reference value: 95.1%); format: functional; details: read-out: Activity
[18] = tested on: A549/TR; experiment: Induction of apoptosis in human A549/TR cells assessed as early apoptotic cells at 4.8 uM after 24 hrs by Annexin-V-FITC/propidium iodide staining-based flow cytometric analysis (reference value: 3.42%); format: functional
[19] = tested on: A549/TR; experiment: Induction of apoptosis in human A549/TR cells assessed as late apoptotic cells at 4.8 uM after 24 hrs by Annexin-V-FITC/propidium iodide staining-based flow cytometric analysis (reference value: 1.24%); format: functional
[20] = tested on: A549/TR; experiment: Induction of apoptosis in human A549/TR cells assessed as necrotic cells at 4.8 uM after 24 hrs by Annexin-V-FITC/propidium iodide staining-based flow cytometric analysis (reference value: 0.22%); format: functional
[21] = tested on: A549/TR; experiment: Cell cycle arrest in human A549/TR cells assessed as accumulation at G0/G1 phase at 1.2 uM after 24 hrs by propidium iodide/RNase-staining based flow cytometric analysis (reference value: 62.5%); format: functional
[22] = tested on: A549/TR; experiment: Cell cycle arrest in human A549/TR cells assessed as accumulation at G2/M phase at 1.2 uM after 24 hrs by propidium iodide/RNase-staining based flow cytometric analysis (reference value: 24.7%); format: functional
[23] = tested on: A549/TR; experiment: Cell cycle arrest in human A549/TR cells assessed as accumulation at G0/G1 phase at 2.4 uM after 24 hrs by propidium iodide/RNase-staining based flow cytometric analysis (reference value: 62.5%); format: functional
[24] = tested on: A549/TR; experiment: Cell cycle arrest in human A549/TR cells assessed as accumulation at G2/M phase at 2.4 uM after 24 hrs by propidium iodide/RNase-staining based flow cytometric analysis (reference value: 24.7%); format: functional
[25] = tested on: A549/TR; experiment: Cell cycle arrest in human A549/TR cells assessed as accumulation at G0/G1 phase at 4.8 uM after 24 hrs by propidium iodide/RNase-staining based flow cytometric analysis (reference value: 62.5%); format: functional
[26] = tested on: A549/TR; experiment: Cell cycle arrest in human A549/TR cells assessed as accumulation at G2/M phase at 4.8 uM after 24 hrs by propidium iodide/RNase-staining based flow cytometric analysis (reference value: 24.7%); format: functional

For `CC1(C)CC[C@]2(C(=O)N3CCN(c4cc(O/N=[N+](\[O-])N5CCOCC5)c([N+](=O)[O-])cc4[N+](=O)[O-])CC3)CC[C@]3(C)[C@H](C(=O)C=C4[C@@]5(C)C=C(C#N)C(=O)C(C)(C)[C@@H]5CC[C@]43C)[C@@H]2C1`, the Activity [1] was greater than 50%, the IC50 [2] was 941 nM and the “Ratio IC50” value [3] was 0.9. For the same molecule, the IC50 [4] was 1080 nM.

In the case of `C[C@H](N)C(=O)OCCN(C)/[N+]([O-])=N/Oc1cc(N2CCN(C(=O)[C@]34CCC(C)(C)C[C@H]3[C@H]3C(=O)C=C5[C@@]6(C)C=C(C#N)C(=O)C(C)(C)[C@@H]6CC[C@@]5(C)[C@]3(C)CC4)CC2)c([N+](=O)[O-])cc1[N+](=O)[O-]`, the Activity [1] is reported as greater than 50%, the IC50 [2] is reported as 697 nM and the “Ratio IC50” value [3] is reported as 0.7. It also gave an IC50 [4] of 1070 nM.

In the case of `C[C@H](N)C(=O)OCCN(C)/[N+]([O-])=N/Oc1cc(NCCOC(=O)[C@]23CCC(C)(C)C[C@H]2[C@H]2C(=O)C=C4[C@@]5(C)C=C(C#N)C(=O)C(C)(C)[C@@H]5CC[C@@]4(C)[C@]2(C)CC3)c([N+](=O)[O-])cc1[N+](=O)[O-]`, the Activity [1] is reported as greater than 50%, the IC50 [2] is reported as 1090 nM and the “Ratio IC50” value [3] is reported as 0.8. The IC50 [4] was 1440 nM.

For `CCOC(=O)N1CCN(/[N+]([O-])=N/Oc2ccc([N+](=O)[O-])cc2[N+](=O)[O-])CC1`, the IC50 [2] was 1990 nM, the “Ratio IC50” value [3] was 0.9 and the Activity [5] was “Active”. For the same molecule, the Activity [6] was “Toxic”, the Activity [7] was “Active” and the Activity [8] was “Active”. It also gave a viability at 1.2 µM [9] of 90.5%, an Activity [10] of 6.75% and an Activity [11] of 2.38%. The Activity [12] was 0.34%, the viability at 2.4 µM [13] was 92.1% and the Activity [14] was 5.63%. For the same molecule, the Activity [15] was 1.94%, the Activity [16] was 0.37% and the viability at 4.8 µM [17] was 87%. The Activity [18] was 7.76%, the Activity [19] was 4.19% and the Activity [20] was 1.04%. For the same molecule, the Activity [21] was 65.3%, the Activity [22] was 24.5% and the Activity [23] was 54.4%. For the same molecule, the Activity [24] was 32%, the Activity [25] was 47.7% and the Activity [26] was 38.7%. The IC50 [4] was 2310 nM.
